We go through eleven compounds from publication PMC9959982 (International Journal of Molecular Sciences, 2023).

One data set has as its system MT-4 cells. Put plainly: Cytotoxicity in MT-4 cells (MTS/PES). The data set is classed as cell-based. Particulars: 50% reduction in cell viability, 5 days.
Another data set relates to rhabdosarcoma (RD) cells. Put plainly: Adverse effect on uninfected RD cells (MTS/PMS). To be noted: RD cells.
Data set [1] deals with EV-A71 BrCr strain. Put plainly: Virus-induced cell death assay, EV-A71 BrCr lab strain in RD cells. The data set is classed as cell-based, Enterovirus A71. Particulars: for EC50: EV-A71 BrCr (wild type).
Another data set can be described thus: in vitro. Particulars: human.
The subject of data set [2] is HIV-1 (NL4.3). Put plainly: microbe, parasite or virus in culture. The data set is classed as cell-based. To be noted: for EC50: virus-induced cytopathic effect reduced by 50%. (In general: Damage to the host cells serves as the signal in cytopathic effect assays.)
The subject of the next data set is HIV-2 (ROD). Put plainly: Inhibition of HIV-induced cytopathic effect in MT-4 cells, HIV-2. The data set is classed as cell-based.
Data set [3] can be described thus: Cytotoxicity in MT-4 cells (MTS/PES). The data set is classed as cell-based. Particulars: human, 50% reduction in cell viability.
For data set [4], the system named is HIV-1 (NL4.3). To be noted: printed in Figure 1, prototypes of previous work; cited from earlier work.
The subject of data set [5] is EV-A71 BrCr strain. Particulars: Figure 1; read-out: EV71 EC50; cited from earlier work.
In the next data set the test system is EV-A71 VP1_S184T. The data set is classed as cell-based, Enterovirus A71. Particulars: VP1_S184T mutant.
The subject of another data set is EV-A71 VP1_P246S. The data set is classed as cell-based, Enterovirus A71. To be noted: VP1_P246S mutant.
A further data set concerns EV-A71 VP1_S184T_P246S. The data set is classed as cell-based, Enterovirus A71. Particulars: VP1_S184T_P246S double mutant.
Data set [6] in a line: Adverse effect on uninfected RD cells (MTS/PMS). Particulars: human, uninfected rhabdosarcoma (RD) cells.
Setting [7] is: Enterovirus A, EVA71, RD, RD cells.
Setting [8] is: Human immunodeficiency virus 1, MT4, MT-4 cells.
The mark [9] stands for this setting: Human immunodeficiency virus 2, MT4, virus-induced cytopathic effect reduced by 50%.

Like-named read-outs stand apart in the source and are kept apart here. Bounds are passed on as bounds.

For orientation: EC50 means the concentration giving half of the maximal effect.

With `O=C(CCOCC(COCCC(=O)NCCNC(=O)Nc1cc(C(=O)O)cc(C(=O)O)c1)(COCCC(=O)NCCNC(=O)Nc1cc(C(=O)O)cc(C(=O)O)c1)COCCC(=O)NCCNC(=O)Nc1cc(C(=O)O)cc(C(=O)O)c1)NCCNC(=O)Nc1cc(C(=O)O)cc(C(=O)O)c1` [Compound 40], the CC50 was over 50 µM in the data set on MT-4 cells and over 100 µM in the data set on rhabdosarcoma (RD) cells.

Take `CCOC(=O)c1ccc(OCCC2CCN(c3ccc(C)nn3)CC2)cc1` [Pirodavir, pirodavir, reference compound]: the “SI selectivity index (CC50/EC50)” value in the data set with EV-A71 BrCr strain [1] is over 333. Moreover, it took 0.3 ± 0.001 µM to reach a half-maximal effect in the data set on EV-A71 BrCr strain [1] (setting [7]) (EC50). The CC50 at 3 days in the data set “in vitro” is over 100 µM.

For `O=C(O)CCCc1[nH]c2ccccc2c1C[C@H](NC(=O)CCOCC(COCCC(=O)N[C@@H](Cc1c(CCCC(=O)O)[nH]c2ccccc12)C(=O)O)(COCCC(=O)N[C@H](Cc1c(CCCC(=O)O)[nH]c2ccccc12)C(=O)O)COCCC(=O)N[C@H](Cc1c(CCCC(=O)O)[nH]c2ccccc12)C(=O)O)C(=O)O` [Compound 32], the CC50 with MT-4 cells is over 50 µM; in the data set with rhabdosarcoma (RD) cells it was over 100 µM.

Consider `O=C(CCOCC(COCCC(=O)NC(Cc1c(CCCCCNC(=O)Nc2cc(C(=O)O)cc(C(=O)O)c2)[nH]c2ccccc12)C(=O)O)(COCCC(=O)NC(Cc1c(CCCCCNC(=O)Nc2cc(C(=O)O)cc(C(=O)O)c2)[nH]c2ccccc12)C(=O)O)COCCC(=O)NC(Cc1c(CCCCCNC(=O)Nc2cc(C(=O)O)cc(C(=O)O)c2)[nH]c2ccccc12)C(=O)O)NC(Cc1c(CCCCCNC(=O)Nc2cc(C(=O)O)cc(C(=O)O)c2)[nH]c2ccccc12)C(=O)O` (stereo not shown) [Compound 24], for which the CC50 was 30.9 ± 0.98 µM in the data set with MT-4 cells and over 100 µM in the data set on rhabdosarcoma (RD) cells.

In the case of `CN[C@@H]1[C@H](O[C@@H]2OC[C@@H](O)[C@H](O)[C@H]2O)[C@@H](O)[C@H](O[C@H]2c3cc(C)c(C(=O)N[C@H](C)C(=O)O)c(O)c3-c3c(cc4c(c3O)C(=O)c3cc(OC)cc(O)c3C4=O)[C@@H]2O)O[C@@H]1C` [PRM-A, pradimicin A], the 50% effective concentration (EC50) with HIV-1 (NL4.3) [2] (setting [8]) came out at 3.3 ± 1.2 µM; in the data set with HIV-2 (ROD) (setting [9]), 5.9 ± 3.7 µM. Also, in the data set with HIV-1 (NL4.3) [2] (MT-4 cells, Table 1), the “SI selectivity index (CC50/EC50)” value is over 30.3. In addition, the CC50 at 5 days in data set [3] is over 100 µM.

As to `O=C(CCC(CCC(=O)NC(Cc1c(-c2cc(C(=O)O)cc(C(=O)O)c2)[nH]c2ccccc12)C(=O)O)(CCC(=O)NC(Cc1c(-c2cc(C(=O)O)cc(C(=O)O)c2)[nH]c2ccccc12)C(=O)O)[N+](=O)[O-])NC(Cc1c(-c2cc(C(=O)O)cc(C(=O)O)c2)[nH]c2ccccc12)C(=O)O` (stereo not shown) [AL-470], the 50% effective concentration (EC50) was 0.27 ± 0.12 µM with HIV-1 (NL4.3) [4] and 0.35 ± 0.03 µM in the data set with EV-A71 BrCr strain [5].

On to dextran sulfate-5000 [DS-5000], for which the EC50 in the data set with HIV-1 (NL4.3) [2] (MT-4 cells) turned out to be 0.07 ± 0.02 µM; in the data set on HIV-2 (ROD) (virus-induced cytopathic effect reduced by 50%) it was 0.03 ± 0.01 µM.

Consider `O=C(CCOCC(COCCC(=O)NC(Cc1c(CCCNC(=O)Nc2cc(C(=O)O)cc(C(=O)O)c2)[nH]c2ccccc12)C(=O)O)(COCCC(=O)NC(Cc1c(CCCNC(=O)Nc2cc(C(=O)O)cc(C(=O)O)c2)[nH]c2ccccc12)C(=O)O)COCCC(=O)NC(Cc1c(CCCNC(=O)Nc2cc(C(=O)O)cc(C(=O)O)c2)[nH]c2ccccc12)C(=O)O)NC(Cc1c(CCCNC(=O)Nc2cc(C(=O)O)cc(C(=O)O)c2)[nH]c2ccccc12)C(=O)O` (stereo not shown) [Compound 23], for which the CC50 with MT-4 cells and in the data set on rhabdosarcoma (RD) cells was over 50 µM in each case. Besides, the EC50 was 0.41 ± 0.03 µM in the data set on EV-A71 VP1_S184T, 0.22 ± 0.01 µM in the data set on EV-A71 VP1_P246S and 0.58 ± 0.2 µM in the data set with EV-A71 VP1_S184T_P246S.

With `O=C(CCOCC(COCCC(=O)NC(Cc1c(CCCCCCCCNC(=O)Nc2cc(C(=O)O)cc(C(=O)O)c2)[nH]c2ccccc12)C(=O)O)(COCCC(=O)NC(Cc1c(CCCCCCCCNC(=O)Nc2cc(C(=O)O)cc(C(=O)O)c2)[nH]c2ccccc12)C(=O)O)COCCC(=O)NC(Cc1c(CCCCCCCCNC(=O)Nc2cc(C(=O)O)cc(C(=O)O)c2)[nH]c2ccccc12)C(=O)O)NC(Cc1c(CCCCCCCCNC(=O)Nc2cc(C(=O)O)cc(C(=O)O)c2)[nH]c2ccccc12)C(=O)O` (stereo not shown) [Compound 25], the CC50 is over 50 µM in the data set on MT-4 cells and over 100 µM with rhabdosarcoma (RD) cells.

As to `O=C(CCOCC(COCCC(=O)Nc1cc(C(=O)O)cc(C(=O)O)c1)(COCCC(=O)Nc1cc(C(=O)O)cc(C(=O)O)c1)COCCC(=O)Nc1cc(C(=O)O)cc(C(=O)O)c1)Nc1cc(C(=O)O)cc(C(=O)O)c1` [Compound 35], the EC50 is over 50 µM with HIV-1 (NL4.3) [2] (setting [8]), over 50 µM in the data set with HIV-2 (ROD) (setting [9]), 8.48 ± 2.34 µM in the data set on EV-A71 BrCr strain [1] (RD cells) and 8.5 µM in the data set with EV-A71 BrCr strain [1] (setting [7]). Moreover, the “activity against HIV-1” value in the data set on HIV-1 (NL4.3) [2] (at concentrations up to 50 µM) is “inactive”. In [3], this compound returned a CC50 at 5 days of over 50 µM. Further, the “SI selectivity index (CC50/EC50)” value in the data set with EV-A71 BrCr strain [1] (EV-A71 BrCr, RD cells) was over 12. In data set [6], this compound gave a CC50 at 3 days of over 100 µM.

With `O=C(O)CCCCCCc1[nH]c2ccccc2c1C[C@H](NC(=O)CCOCC(COCCC(=O)N[C@@H](Cc1c(CCCCCCC(=O)O)[nH]c2ccccc12)C(=O)O)(COCCC(=O)N[C@H](Cc1c(CCCCCCC(=O)O)[nH]c2ccccc12)C(=O)O)COCCC(=O)N[C@H](Cc1c(CCCCCCC(=O)O)[nH]c2ccccc12)C(=O)O)C(=O)O` [Compound 33], the figures for the CC50 with MT-4 cells and with rhabdosarcoma (RD) cells were over 50 µM and over 100 µM, respectively.
